For orientation: Km means the substrate concentration at which the rate is half of its maximum. Usually kcat stands for the maximal rate divided by the concentration of active sites. As a reminder, the kcat/Km is the second-order rate constant that governs catalysis at low substrate concentration.

Like-named read-outs stand apart in the source and are kept apart here. Non-standard residues stand in square brackets, D forms with d. *: point of attachment. ACC = NC(=O)Cc1cc(=O)oc2cc(N*)ccc12; AMC = Cc1cc(=O)oc2cc(N*)ccc12; hSer = N[C@@H](CCO)C(=O)O; Boc = CC(C)(C)OC(=O)*

In experiment [1] the test system is trypsin-like subunit of the 20S proteasome. To be noted: cited from earlier work; for selectivity for the trypsin subunit / selectivity for trypsin-like specificity: introduction; for selectivity for trypsin-like specificity: commercially available substrates, no reference given. From the text: Table 1 Overview of the fluorogenic substrates of the trypsin-like subunit of the 20S proteasome. | column: Km (µM); kcat (s^−1); kcat/Km (M^−1 s^−1) || The aim of this work is to develop a new substrate to assay the trypsin-like specificity of the human 20S proteasome that is created by DAPEG building blocks, which are N-substituted functionalized derivates of 3-diaminopropionic acid (Figure 1). The substrate preferences of the β2 subunit have been previously examined. Harris and coworkers described the development of new substrates selected via combinatorial library screening. The substrate peptides were labeled with 7-amino-4-carbamoylmethylcoumarin (ACC) as a reporter moiety, and a specific sequence of the β2 subunit, Ac–Glu– ...

Experiment [2] addresses T1, human 20S proteasome, trypsin-like (β2) subunit (Homo sapiens, UniProt P49720+Q99436).
T1 construct: purchased Boston Biochem (Cambridge, MA, USA)
The experiment is described as follows: Kinetic parameters of substrate 1 with human 20S proteasome (allosteric fit). It is filed as biochemical. To be noted: SDS 0.01%, substrate 1. How it is done:
For enzymatic studies, the human 20S proteasome, 26S proteasome, and 20S immunoproteasome were purchased from Boston Biochem (Cambridge, MA, USA). The 20S proteasome concentration for library deconvolution was in the nanomolar range, and this proteasome entity was used for the main study. Deconvolution of the peptide libraries was performed using the iterative solution method. Dimethyl sulfoxide (DMSO) was used as a solvent for preparation of the stock solution (5 mg/mL) for each lyophilized sub-library. This stock solution was diluted ten times using an assay buffer (50 mM Tris/HCl buffer (pH 8.2)) for the 20S and 20Si proteasome, and for 26S, the buffer was supplemented with 40 mM KCl, 2 mM EDTA, 1 mM DTT, 100 µM ATP, and 50 µg/mL bovine serum albumin (BSA). The volume composition of each well of the 96-well plate was: 20 µL library, 160 µL assay buffer, and 20 µL 20S proteasome solution at a concentration of 1.07 × 10^−9 M. Absorbance or fluorescence measurements were performed on a FluoroStar OMEGA multimode microplate reader (BMG, Ortenberg, Germany). Absorbance increases were monitored at 410 nm. The excitation and emission wavelengths were 320 and 450 nm respectively, for the ABZ/ANB. Enzymatic hydrolysis of the peptide was performed in the assay buffer at 37 °C and continued over 60 min.
The procedures to determine the kinetic constants Km and kcat are described below. Increasing concentrations of substrate 1 ranged from 1 × 10^−6 to 2 × 10^−5 M. In parallel, a kinetic assay with the artificial activator SDS at 0.01% was also performed. The data were fitted to an allosteric plot using GraphPad prism v6.0 (GraphPad Software Inc., La Jolla, CA, USA). The specificity constants (kcat/ Km) were calculated from the kcat and Km values. Measurements were performed using a 20S proteasome concentration of 1.07 × 10^−9 M. Three to five measurements were performed for each compound dilution (the systematic error, defined as the standard deviation, never surpassed 20%). The initial hydrolysis rates were used as the amount of enzymatic activity for the tested compounds. All kinetic study details and kinetic parameters have been described elsewhere.

Another experiment deals with 20S proteasome. Briefly: Inhibitory studies: cleavage of substrate 1 in the presence of selective proteasome inhibitors. To be noted: 30 min preincubation at 37 °C, 20S 1.07 × 10^−9 M, substrate 1.34 × 10^−5 M, triplicate. Format: biochemical, human. The text has this:
A black, 96-well flat-bottomed microplate (Brand GMBH, Wertheim, Germany) was used for the inhibitory studies. Two inhibitors, carfilzomib (a selective inhibitor of the β5 subunit of the 20S proteasome) and epoxomicin, were purchased from Merck (Darmstadt, Germany) and used at final concentrations of 1.15 × 10^−6 M and 5.0 × 10^−5 M, respectively. The β2 inhibitor, PR671A [20], and the β1 inhibitor, NCOO1 [21], were used at a concentration of 5 × 10^−6 M. These reagents were kindly provided by Alexei Kisselev from Dartmouth University (Dartmouth, NH, USA). The concentration of 20S proteasome was 1.07 × 10^−9 M. The buffered proteasome solution was mixed with 10 µL inhibitor solution. This mixture was incubated for 30 min at 37 °C. After this period, the substrate solution was added at a concentration of 1.34 × 10^−5 M, and the fluorescence was measured over time at 320 nm excitation and 450 nm emission wavelengths. All measurements were performed in triplicate.

Experiment [3] relates to chymotrypsin subunit (β5) of the 20S proteasome in human urine. Briefly: Proteasome activity in human urine with the β5 substrate. It is filed as biochemical. How it is done: All urine samples were purchased from St. Vincent de Paul Hospital in Gdynia, Poland (contract no. JN/777/R720/08.11.17). All methods and procedures were performed in accordance with this contract agreement. Participants were informed about the study and sample collection, and their written consent was collected. […] Therefore, the samples were considered unnamed. The samples of human urine were taken during mid-urination and kept for 48 h at −80 °C until required. All samples used for assay development were taken from healthy volunteers (n = 5), and oncological samples were obtained from patients diagnosed with bladder cancer (n = 8).
In parallel, the urine samples were analyzed using the previously developed substrate ABZ–Val–Val–Ser–Tyr–Ala–Met–Gly–Tyr(3-NO2)–NH2 [21] in two systems: one with the artificial activator SDS at 0.01% and the second without any SDS. The fluorescence of the system was recorded over time. The same conditions for excitation and emission were used as above. All measurements were performed in triplicate.
The resulting data were analyzed using Graphpad Prism version 6.0 software (GraphPad Software Inc., La Jolla, CA, USA). All fluorescent measurements were performed in triplicate and represented by the mean ± standard deviation (SD). A two-tailed Mann–Whitney test was applied for the statistical analysis (p < 0.0001).

Experiment [4] deals with neutrophil-related proteases / neutrophil serine protease 4 (NSP4). The note with it: ref [19], cited from earlier work. From the text: Recently, we established a new method for the selection and synthesis of artificial fluorogenic substrates composed of DAPEG residues (Figure 1). For the screening of 18 libraries, we created a series of compounds based on the neutrophil serine protease 4 (NSP4) substrate sequence (ABZ–X4–X3–X2–Arg–ANB–NH2) diversified in positions X4 to X2 with DAPEG, resulting in a total of almost 6000 compounds.

Regarding Ac-[dR][hSer]TR-{ACC}, in experiment [1] (ref [18]), the “selectivity for the trypsin subunit” value is listed as “moderate selectivity at higher proteasome concentrations”, the Km was 9.43 ± 0.82 µM, the kcat was 2.84 ± 0.22 s⁻¹ and the kcat/Km is reported as 301,005 ± 28,471 M^−1 s^−1. The kcat/Km in experiment [1] (ref [18], listed as Ac–DArg–Hse–Thr–Arg–ACC) was 301,005 M^−1 s^−1.
Regarding “ABZ–Val–Val–Ser–GNF–Ala–Met–Gly–Tyr(3-NO2)–NH2”, in experiment [1] (ref [21]), the Km is 4.24 ± 0.87 µM, the kcat is 8.41 ± 0.57 s⁻¹ and the kcat/Km is 1,983,100 ± 2754 M^−1 s^−1.
`CCCCCCCCCCCCOS(=O)(=O)[O-].[Na+]` [SDS, sodium dodecyl sulfate]: the “effect on β2 subunit activity of the 20S proteasome” value in experiment [2] is “not significantly altered”.
As for `CC[C@H](C)[C@H](NC(=O)[C@H]([C@@H](C)CC)N(C)C(C)=O)C(=O)N[C@H](C(=O)N[C@@H](CC(C)C)C(=O)[C@@]1(C)CO1)[C@@H](C)O` [epoxomicin], in the experiment on 20S proteasome (epoxomicin (general inhibitor) 5.0 × 10^−5 M), the “effect on cleavage of substrate 1” value is recorded as “proteolytic suppression of substrate 1”.
“Boc-Leu-Arg-Arg-{AMC} [commercially available 20S proteasome substrate]”: the “selectivity for trypsin-like specificity” value in experiment [1] is listed as “significant selectivity”. Besides, the specificity constant (kcat/Km) in experiment [1] (ref [22]) was less than 500 M⁻¹ s⁻¹.
For the compound “ABZ–Val–Val–Ser–Tyr–Ala–Met–Gly–Tyr(3-NO2)–NH2 [previously developed substrate]”, the “fluorescence increase, healthy samples” value in experiment [3] (healthy urine, all systems (with and without SDS), n = 5) is on record as “no visible fluorescence increase”. The “bladder cancer samples with fluorescence increase” value in experiment [3] (with SDS 0.01%, 8 bladder cancer samples, triplicate) is “seven systems (1–5, 7, and 8)”. For the same compound, the “fluorescence increase rate, sample N° 6” value in experiment [3] (with SDS 0.01%, bladder cancer sample N° 6) is reported as “insignificant”. In addition, the “bladder cancer samples with visible fluorescence increase” value in experiment [3] (without SDS, 8 bladder cancer samples, 320/450 nm, triplicate) is recorded as 2 out of the 8.
Turning to Ac–βAla–Met(O)2–Thr–Arg–ACC, in experiment [1] (ref [18]), the “selectivity for the trypsin subunit” value was “most selective”, the Km is 50.9 ± 2.99 µM, the kcat is 2.23 ± 0.07 s⁻¹ and the kcat/Km is 43,790 ± 3233 M^−1 s^−1. Moreover, in experiment [1] (ref [18], listed as Ac–βAla–Met(O2)–Thr–Arg–ACC), the kcat/Km was 43,790 M^−1 s^−1.
Take “ABZ–Dap(O2(Cbz))–Dap(Cbz)–Dap(GO1)–Arg–ANB–NH2”: the “specificity constant (kcat/Km)” value in experiment [4] (NSP4 substrate-based library) is 130000 M⁻¹ s⁻¹. The “selectivity towards neutrophil-related proteases” value in experiment [4] was “high levels of selectivity”.
With `CC(C)C[C@H](NC(=O)[C@H](CCc1ccccc1)NC(=O)CN1CCOCC1)C(=O)N[C@@H](Cc1ccccc1)C(=O)N[C@@H](CC(C)C)C(=O)[C@@]1(C)CO1` [carfilzomib], the “effect on cleavage of substrate 1” value in the experiment with 20S proteasome (carfilzomib (β5) 1.15 × 10^−6 M) is “a slight activation of the cleavage rate”.
In the case of “Ac-Leu-Arg-Arg-{AMC} [commercially available 20S proteasome substrate]”, in experiment [1], the “selectivity for trypsin-like specificity” value is “significant selectivity”.

The values above are taken from PMC7177456, “A Peptidomimetic Fluorescent Probe to Detect the Trypsin β2 Subunit of the Human 20S Proteasome” (International Journal of Molecular Sciences, 2020).
